Assay results reported in BindingDB's records for doi:10.1111/j.1432-1033.1992.tb17252.x (Universit&Eacute, 1992).
Non-standard residues stand in square brackets, D forms with d. Residues, ends and D or L forms follow the SMILES beside them. ξ: configuration not given here. Ile(3ξ) = CCC(C)[C@H](N)C(=O)O

Biological target: T1, Pituitary adenylate cyclase-activating polypeptide (Homo sapiens, UniProt P18509)
T1 sequence (P18509 whole entry): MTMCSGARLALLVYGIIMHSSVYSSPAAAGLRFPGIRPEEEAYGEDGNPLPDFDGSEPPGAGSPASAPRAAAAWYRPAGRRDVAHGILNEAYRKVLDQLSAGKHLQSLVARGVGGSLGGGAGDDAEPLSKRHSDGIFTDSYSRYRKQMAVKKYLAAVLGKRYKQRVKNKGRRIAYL

Structure (SMILES)	Ki [nM]
CCC(C)[C@H](NC(=O)CNC(=O)[C@@H](N)CC(=O)O)C(=O)N[C@@H](Cc1ccccc1)C(=O)N[C@H](C(=O)N[C@@H](CC(=O)O)C(=O)N[C@@H](CO)C(=O)N[C@@H](Cc1ccc(O)cc1)C(=O)N[C@@H](CO)C(=O)N[C@@H](CCCN=C(N)N)C(=O)N[C@@H](Cc1ccc(O)cc1)C(=O)N[C@@H](CCCN=C(N)N)C(=O)N[C@@H](CCCCN)C(=O)N[C@@H](CCC(N)=O)C(=O)N[C@@H](CCSC)C(=O)N[C@@H](C)C(=O)N[C@H](C(=O)N[C@@H](CCCCN)C(=O)N[C@@H](CCCCN)C(=O)N[C@@H](Cc1ccc(O)cc1)C(=O)N[C@@H](CC(C)C)C(=O)N[C@@H](C)C(=O)N[C@@H](C)C(=O)N[C@H](C(=O)N[C@@H](CC(C)C)C(=O)NCC(=O)N[C@@H](CCCCN)C(=O)N[C@@H](CCCN=C(N)N)C(=O)N[C@@H](Cc1ccc(O)cc1)C(=O)N[C@@H](CCCCN)C(=O)N[C@@H](CCC(N)=O)C(=O)N[C@@H](CCCN=C(N)N)C(=O)N[C@H](C(=O)N[C@@H](CCCCN)C(=O)N[C@@H](CC(N)=O)C(=O)N[C@@H](CCCCN)C(N)=O)C(C)C)C(C)C)C(C)C)[C@@H](C)O (some centres not stated) [PACAP(3-38)] (H-DG[Ile(3ξ)]FTDSYSRYRKQMAVKKYLAAVLGKRYKQRVKNK-NH2)	29
CCC(C)[C@H](NC(=O)CN)C(=O)N[C@@H](Cc1ccccc1)C(=O)N[C@H](C(=O)N[C@@H](CC(=O)O)C(=O)N[C@@H](CO)C(=O)N[C@@H](Cc1ccc(O)cc1)C(=O)N[C@@H](CO)C(=O)N[C@@H](CCCN=C(N)N)C(=O)N[C@@H](Cc1ccc(O)cc1)C(=O)N[C@@H](CCCN=C(N)N)C(=O)N[C@@H](CCCCN)C(=O)N[C@@H](CCC(N)=O)C(=O)N[C@@H](CCSC)C(=O)N[C@@H](C)C(=O)N[C@H](C(=O)N[C@@H](CCCCN)C(=O)N[C@@H](CCCCN)C(=O)N[C@@H](Cc1ccc(O)cc1)C(=O)N[C@@H](CC(C)C)C(=O)N[C@@H](C)C(=O)N[C@@H](C)C(=O)N[C@H](C(=O)N[C@@H](CC(C)C)C(N)=O)C(C)C)C(C)C)[C@@H](C)O (some centres not stated) [PACAP(4-27)] (H-G[Ile(3ξ)]FTDSYSRYRKQMAVKKYLAAVL-NH2)	500
CSCC[C@H](NC(=O)[C@H](CCC(N)=O)NC(=O)[C@H](CCCCN)NC(=O)[C@H](CCCN=C(N)N)NC(=O)[C@H](Cc1ccc(O)cc1)NC(=O)[C@H](CCCN=C(N)N)NC(=O)[C@H](CO)NC(=O)[C@H](Cc1ccc(O)cc1)NC(=O)[C@H](CO)NC(=O)[C@H](CC(=O)O)NC(=O)[C@@H](NC(=O)[C@@H](N)Cc1ccccc1)[C@@H](C)O)C(=O)N[C@@H](C)C(=O)N[C@H](C(=O)N[C@@H](CCCCN)C(=O)N[C@@H](CCCCN)C(=O)N[C@@H](Cc1ccc(O)cc1)C(=O)N[C@@H](CC(C)C)C(=O)N[C@@H](C)C(=O)N[C@@H](C)C(=O)N[C@H](C(=O)N[C@@H](CC(C)C)C(N)=O)C(C)C)C(C)C [PACAP(5-27)] (H-FTDSYSRYRKQMAVKKYLAAVL-NH2)	150
CSCC[C@H](NC(=O)[C@H](CCC(N)=O)NC(=O)[C@H](CCCCN)NC(=O)[C@H](CCCN=C(N)N)NC(=O)[C@H](Cc1ccc(O)cc1)NC(=O)[C@H](CCCN=C(N)N)NC(=O)[C@H](CO)NC(=O)[C@H](Cc1ccc(O)cc1)NC(=O)[C@H](CO)NC(=O)[C@H](CC(=O)O)NC(=O)[C@@H](N)[C@@H](C)O)C(=O)N[C@@H](C)C(=O)N[C@H](C(=O)N[C@@H](CCCCN)C(=O)N[C@@H](CCCCN)C(=O)N[C@@H](Cc1ccc(O)cc1)C(=O)N[C@@H](CC(C)C)C(=O)N[C@@H](C)C(=O)N[C@@H](C)C(=O)N[C@H](C(=O)N[C@@H](CC(C)C)C(N)=O)C(C)C)C(C)C [PACAP(6-27)] (H-TDSYSRYRKQMAVKKYLAAVL-NH2)	100
CSCC[C@H](NC(=O)[C@H](CCC(N)=O)NC(=O)[C@H](CCCCN)NC(=O)[C@H](CCCN=C(N)N)NC(=O)[C@H](Cc1ccc(O)cc1)NC(=O)[C@H](CCCN=C(N)N)NC(=O)[C@H](CO)NC(=O)[C@H](Cc1ccc(O)cc1)NC(=O)[C@H](CO)NC(=O)[C@@H](N)CC(=O)O)C(=O)N[C@@H](C)C(=O)N[C@H](C(=O)N[C@@H](CCCCN)C(=O)N[C@@H](CCCCN)C(=O)N[C@@H](Cc1ccc(O)cc1)C(=O)N[C@@H](CC(C)C)C(=O)N[C@@H](C)C(=O)N[C@@H](C)C(=O)N[C@H](C(=O)N[C@@H](CC(C)C)C(N)=O)C(C)C)C(C)C [PACAP(8-27)] (H-DSYSRYRKQMAVKKYLAAVL-NH2)	1300
CSCC[C@H](NC(=O)[C@H](CCC(N)=O)NC(=O)[C@H](CCCCN)NC(=O)[C@H](CCCN=C(N)N)NC(=O)[C@H](Cc1ccc(O)cc1)NC(=O)[C@H](CCCN=C(N)N)NC(=O)[C@H](CO)NC(=O)[C@H](Cc1ccc(O)cc1)NC(=O)[C@H](CO)NC(=O)[C@@H](N)CC(=O)O)C(=O)N[C@@H](C)C(=O)N[C@H](C(=O)N[C@@H](CCCCN)C(=O)N[C@@H](CCCCN)C(=O)N[C@@H](Cc1ccc(O)cc1)C(=O)N[C@@H](CC(C)C)C(=O)N[C@@H](C)C(=O)N[C@@H](C)C(=O)N[C@H](C(=O)N[C@@H](CC(C)C)C(=O)NCC(=O)N[C@@H](CCCCN)C(=O)N[C@@H](CCCN=C(N)N)C(=O)N[C@@H](Cc1ccc(O)cc1)C(=O)N[C@@H](CCCCN)C(=O)N[C@@H](CCC(N)=O)C(=O)N[C@@H](CCCN=C(N)N)C(=O)N[C@H](C(=O)N[C@@H](CCCCN)C(=O)N[C@@H](CC(N)=O)C(=O)N[C@@H](CCCCN)C(N)=O)C(C)C)C(C)C)C(C)C [PACAP(8-38)] (H-DSYSRYRKQMAVKKYLAAVLGKRYKQRVKNK-NH2)	30
CSCC[C@H](NC(=O)[C@H](CCC(N)=O)NC(=O)[C@H](CCCCN)NC(=O)[C@H](CCCN=C(N)N)NC(=O)[C@H](Cc1ccc(O)cc1)NC(=O)[C@H](CCCN=C(N)N)NC(=O)[C@H](CO)NC(=O)[C@H](Cc1ccc(O)cc1)NC(=O)[C@@H](N)CO)C(=O)N[C@@H](C)C(=O)N[C@H](C(=O)N[C@@H](CCCCN)C(=O)N[C@@H](CCCCN)C(=O)N[C@@H](Cc1ccc(O)cc1)C(=O)N[C@@H](CC(C)C)C(=O)N[C@@H](C)C(=O)N[C@@H](C)C(=O)N[C@H](C(=O)N[C@@H](CC(C)C)C(=O)NCC(=O)N[C@@H](CCCCN)C(=O)N[C@@H](CCCN=C(N)N)C(=O)N[C@@H](Cc1ccc(O)cc1)C(=O)N[C@@H](CCCCN)C(=O)N[C@@H](CCC(N)=O)C(=O)N[C@@H](CCCN=C(N)N)C(=O)N[C@H](C(=O)N[C@@H](CCCCN)C(=O)N[C@@H](CC(N)=O)C(=O)N[C@@H](CCCCN)C(N)=O)C(C)C)C(C)C)C(C)C [PACAP(9-38)] (H-SYSRYRKQMAVKKYLAAVLGKRYKQRVKNK-NH2)	50
